According to US20260166039A1 (SCHRÖDINGER, INC., priority 2022, published 2026):
Like-named read-outs stand apart in the source and are kept apart here.

How the values were obtained:
[1] = test system: phosphorylation of Cdc2 Y15 (Wee1 substrate) in A427 cells; assay: Phosphorylated Cdc2 MSD Electrochemiluminescence Assay; type: cell-based; settings: Homo sapiens
Procedure, shortened: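 A427 cells (RPMI 1640, 10% FBS) treated 20 h after plating with 3-fold serial compound dilutions, in duplicate, 37 °C, 5% CO2; total incubation 6 h. Lysate Cdc2 pY15 read by MSD electrochemiluminescence sandwich immunoassay; % remaining signal normalised to DMSO (high) and reference Wee1 inhibitor (low) controls.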

Wee1 kinase domain = biological target: T1, Wee1 kinase domain (Homo sapiens, UniProt P30291); assay: Wee1 Kinase Biochemical Assay (ADP-Glo); settings: 15 uM ATP
T1 construct: Wee1 kinase domain was purchased from Carna (catalog #05-177); purchased Carna 05-177
Procedure, shortened: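 Carna Wee1 kinase domain at 1 nM, with 15 uM ATP and 2 ng/mL poly(Lys,Tyr 4:1) substrate in 40 mM Tris-HCl, 20 mM MgCl2, 0.1 mg/mL BSA, 2 mM DTT, run 4 h at 25° C. ADP formation read by ADP-Glo luminescence. Percent inhibition normalised to DMSO and saturating-inhibitor controls.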

[2] = A-427, class symbols, read-out: A427 pCDC2 MSD IC50
[3] = class symbols, 1 nM Wee1 enzyme, 4 hours at 25° C.

T1 sequence (P30291 299-569 limits assumed): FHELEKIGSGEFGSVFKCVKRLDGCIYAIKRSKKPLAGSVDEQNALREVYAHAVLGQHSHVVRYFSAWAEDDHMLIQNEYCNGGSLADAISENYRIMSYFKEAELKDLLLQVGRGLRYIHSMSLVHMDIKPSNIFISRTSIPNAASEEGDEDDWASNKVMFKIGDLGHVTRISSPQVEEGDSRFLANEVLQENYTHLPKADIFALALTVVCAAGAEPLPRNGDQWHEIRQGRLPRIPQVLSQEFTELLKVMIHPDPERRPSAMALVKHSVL

Compound	IC50 ([1]; A-427, pCDC2 MSD) [nM]	IC50 (Wee1 kinase domain; Wee1 kinase domain, ADP-Glo) [nM]	IC50 [1, 2] [nM]	IC50 (Wee1 kinase domain; [3]) [nM]
CNCc1cccc(N2c3nc(Nc4ccc(S(C)(=O)=O)cc4)ncc3[C@@]3(C)COC(C)(C)C[C@@H]23)n1 (single isomer, unassigned) [Example 34]	100 to 1000	< 10		
CN1CC2(C1)CN(c1ccc(Nc3ncc4c(n3)N(c3cccc(N=S(C)(C)=O)n3)[C@@H]3CC(C)(C)OC[C@]43C)cc1)C2 [Example 219, dimethyl((6-((4bR,8aR)-4b,7,7-trimethyl-2-((4-(6-methyl-2,6-diazaspiro[3.3]heptan-2-yl)phenyl)amino)-4b,7,8,8a-tetrahydropyrano[3′,4′:4,5]pyrrolo[2,3-d]pyrimidin-9(5H)-yl)pyridin-2-yl)imino)-l6-sulfanone]	100 to 1000	< 10		
CNCc1cccc(N2c3nc(Nc4ccc([C@@H]5CCNC5)cc4)ncc3[C@@]3(C)COC(C)(C)C[C@@H]23)n1 (single isomer, unassigned) [Example 454]			100 to 1000	< 10
CNCc1cccc(N2c3nc(Nc4ccc([C@H]5CC(=O)N(C)C5)cc4)ncc3[C@@]3(C)COC(C)(C)C[C@@H]23)n1 (single isomer, unassigned) [Example 68]	100 to 1000	< 10		
Cc1cc(Nc2ncc3c(n2)N(c2cccc(N4C(=O)OC[C@@H]4C)n2)[C@@H]2CC(C)(C)OC[C@]32C)ccc1O[C@@H]1CCN(C)C1 (single isomer, unassigned) [Example 347]	100 to 1000	< 10		
Cc1cc(Nc2ncc3c(n2)N(c2cccc(C(C)(C)O)n2)[C@@H]2CC(C)(C)OC[C@]32C)ccc1N1C[C@@H]2C[C@H]1CN2C (single isomer, unassigned) [Example 429]			100 to 1000	< 10
C[C@H]1COC(=O)N1c1cccc(N2c3nc(Nc4ccc(N5CC6(CN(C)C6)C5)cc4)ncc3[C@@]3(C)COC(C)(C)C[C@@H]23)n1 (single isomer, unassigned) [Example 355]	100 to 1000	< 10		
CC1(C)C[C@H]2N(c3cccc([C@@H]4CCCN4)n3)c3nc(Nc4ccc(N5CCOCC5)cc4)ncc3[C@@]2(C)CO1 (single isomer, unassigned) [Example 526]			100 to 1000	< 10
CN1C[C@H]2C[C@@H]1CN2c1ccc(Nc2ncc3c(n2)N(c2cccc(C(C)(C)O)n2)[C@@H]2CC(C)(C)OC[C@]32C)cc1Cl (single isomer, unassigned) [Example 433]			100 to 1000	< 10
C[C@H]1CCC(=O)N1c1cccc(N2c3nc(Nc4ccc(N5C[C@@H]6C[C@H]5CN6C)cc4)ncc3[C@@]3(C)COC(C)(C)C[C@@H]23)n1 [Example 651, (S)-5-methyl-1-(6-((4bR,8aR)-4b,7,7-trimethyl-2-((4-((1S,4S)-5-methyl-2,5-diazabicyclo[2.2.1]heptan-2-yl)phenyl)amino)-4b,7,8,8a-tetrahydropyrano[3′,4′:4,5]pyrrolo[2,3-d]pyrimidin-9(5H)-yl)pyridin-2-yl)pyrrolidin-2-one]			100 to 1000	< 10
Cc1cc(Nc2ncc3c(n2)N(c2cccc([C@@H]4CCCN4)n2)[C@@H]2CC(C)(C)OC[C@]32C)ccc1N1CCOCC1 (single isomer, unassigned) [Example 529]			100 to 1000	< 10
CN1CCN(c2cccc(N3c4nc(Nc5ccc(N6CCOCC6)cc5)ncc4[C@@]4(C)COC(C)(C)C[C@@H]34)n2)CC1 (single isomer, unassigned) [Example 535]			100 to 1000	< 10
C[C@H]1COC(=O)N1c1cccc(N2c3nc(Nc4ccc(O[C@H]5CCNC5)cc4)ncc3[C@@]3(C)COC(C)(C)C[C@@H]23)n1 (single isomer, unassigned) [Example 329]	100 to 1000	< 10		
C[C@H]1CCC(=O)N1c1cccc(N2c3nc(Nc4ccc(N5CC6(CN(C)C6)C5)cc4)ncc3[C@@]3(C)COCC[C@@H]23)n1 (single isomer, unassigned) [Example 776]			100 to 1000	< 10
Cc1cc(Nc2ncc3c(n2)N(c2cccc(N4C(=O)OC[C@@H]4C)n2)[C@@H]2CC(C)(C)OC[C@]32C)ccc1N1CCN(C)CC1 (single isomer, unassigned) [Example 237]	< 100	< 10		
C[C@H]1COC(=O)N1c1cccc(N2c3nc(Nc4ccc([C@]5(C)CCN(C)C5)cc4)ncc3[C@@]3(C)COC(C)(C)C[C@@H]23)n1 (single isomer, unassigned) [Example 351]	< 100	< 10		
C[C@H]1COC(=O)N1c1cccc(N2c3nc(Nc4ccc(N5CC6(CN(C)C6)C5)cc4)ncc3[C@@]3(C)COCC[C@@H]23)n1 (single isomer, unassigned) [Example 784]			100 to 1000	< 10
CN(C)C(=O)c1ccc(Nc2ncc3c(n2)N(c2cccc(N=S(C)(C)=O)n2)[C@@H]2CC(C)(C)OC[C@]32C)cc1 (single isomer, unassigned) [Example 141]	< 100	< 10		

Compound	IC50 ([1]; A-427, pCDC2 MSD) [nM]	IC50 (Wee1 kinase domain; Wee1 kinase domain, ADP-Glo) [nM]	IC50 [1, 2] [nM]	IC50 (Wee1 kinase domain; [3]) [nM]
CN[C@H](C)c1cccc(N2c3nc(Nc4ccn(C5CCOCC5)c(=O)c4)ncc3[C@@]3(C)COC(C)(C)C[C@@H]23)n1 (single isomer, unassigned) [Example 391]	100 to 1000	< 10		
C[C@H]1COC(=O)N1c1cccc(N2c3nc(Nc4ccc(O[C@@H]5CCNC5)nc4)ncc3[C@@]3(C)COC(C)(C)C[C@@H]23)n1 (single isomer, unassigned) [Example 287]	100 to 1000	< 10		
CNCc1cccc(N2c3nc(Nc4cnn(C)c4)ncc3[C@@]3(C)COC(C)(C)C[C@@H]23)n1 (single isomer, unassigned) [Example 472]			100 to 1000	< 10
CN1C[C@@H]2C[C@H]1CN2c1ccc(Nc2ncc3c(n2)N(c2cccc(C(C)(C)O)n2)[C@@H]2CC(C)(C)OC[C@]32C)cc1 (single isomer, unassigned) [Example 416]			100 to 1000	< 10
CN1CC[C@@H]2CN(c3ccc(Nc4ncc5c(n4)N(c4cccc(N6CCOC6=O)n4)[C@@H]4CC(C)(C)OC[C@]54C)cc3)C[C@@H]21 [Example 705, 3-(6-((4bR,8aR)-4b,7,7-trimethyl-2-((4-((3aR,6aR)-1-methylhexahydropyrrolo[3,4-b]pyrrol-5(1H)-yl)phenyl)amino)-4b,7,8,8a-tetrahydropyrano[3′,4′:4,5]pyrrolo[2,3-d]pyrimidin-9(5H)-yl)pyridin-2-yl)oxazolidin-2-one]			100 to 1000	< 10
CNCc1cccc(N2c3nc(Nc4ccc([C@@H]5CC(=O)N(C)C5)cc4)ncc3[C@@]3(C)COC(C)(C)C[C@@H]23)n1 (single isomer, unassigned) [Example 69]	< 100	< 10		
CNCc1cccc(N2c3nc(Nc4ccc(N5C[C@@H](C)O[C@@H](C)C5)cc4)ncc3[C@]3(C)COC(C)(C)C[C@H]23)n1 (single isomer, unassigned) [Example 20]	100 to 1000	< 10		
CC1(C)C[C@H]2N(c3cccc(C(C)(C)O)n3)c3nc(Nc4ccc(O[C@H]5CCNC5)cc4)ncc3[C@@]2(C)CO1 (single isomer, unassigned) [Example 419]			< 100	< 10
CNCc1cccc(N2c3nc(Nc4ccc(C(=O)N5CCOCC5)cc4)ncc3[C@@]3(C)COC(C)(C)C[C@@H]23)n1 (single isomer, unassigned) [Example 24]	100 to 1000	< 10		
Cc1cc(Nc2ncc3c(n2)N(c2cccc(N=S(C)(C)=O)n2)[C@@H]2CC(C)(C)OC[C@]32C)ccc1[C@@H]1CCN(C)C1 (single isomer, unassigned) [Example 145]	< 100	< 10		
C[C@H]1COC(=O)N1c1cccc(N2c3nc(Nc4ccc(N5C[C@H]6C[C@@H]5CN6C)cc4)ncc3[C@]3(C)COC(C)(C)C[C@H]23)n1 (single isomer, unassigned) [Example 246]	1000 to 10000	10 to 100		
CC1(C)C[C@H]2N(c3cccc(N=S(C)(C)=O)n3)c3nc(Nc4ccc(N5C[C@@H]6C[C@H]5CO6)cc4)ncc3[C@@]2(C)CO1 (single isomer, unassigned) [Example 497]			100 to 1000	< 10
C[C@H]1COC(=O)N1c1cccc(N2c3nc(Nc4ccc([C@@H]5CCN(C)C5)nc4)ncc3[C@@]3(C)COC(C)(C)C[C@@H]23)n1 (single isomer, unassigned) [Example 265]	< 100	< 10		
CC1(C)C[C@H]2N(c3cccc(C(C)(C)N)n3)c3nc(Nc4ccc(N5CCOCC5)cc4)ncc3[C@@]2(C)CO1 (single isomer, unassigned) [Example 567]			< 100	< 10
CN1C[C@@H]2CN(c3ccc(Nc4ncc5c(n4)N(c4cccc(C(C)(C)O)n4)[C@@H]4CC(C)(C)OC[C@]54C)cc3)C[C@@H]2C1 (single isomer, unassigned) [Example 446]			100 to 1000	< 10
Cc1cc(Nc2ncc3c(n2)N(c2cccc(N4C(=O)OC[C@@H]4C)n2)[C@@H]2CC(C)(C)OC[C@]32C)ccc1[C@@H]1CCNC1 (single isomer, unassigned) [Example 269]	100 to 1000	< 10		
CN[C@H](C)c1cccc(N2c3nc(Nc4ccc(N5CCOCC5)cc4)ncc3[C@@]3(C)COC(C)(C)C[C@@H]23)n1 (single isomer, unassigned) [Example 549]			< 100	< 10
